Assay results as given in patent publication US9707212B2, “S-nitrosoglutathione reductase inhibitors” (Nivalis Therapeutics, Inc., priority 2010, dated 2017).

How the values were obtained:
[1] = Mouse pharmacokinetic (PK) study; assay type: in vivo, male BALB/c mice; details: mice; for bioavailability: male, BALB/c, mouse, plasma, PO 10 mg/kg, IV 2 mg/kg
Description: The mouse was used to determine the pharmacokinetics of compounds of the invention. This species is widely used to assess the bioavailability of compounds by administering both oral (PO) and intravenous (IV) test articles. Efficacy of the compounds of the invention was compared by assessing plasma exposure in male BALB/c mice either via IV or PO administration at the times of peak activity.
Compounds of the invention were reconstituted in a phosphate buffered saline (PBS)/10% Solutol (HS 15) clear solution resulting in a concentration of 0.2 mg/ml and administered to mice (2 mg/kg) as a single IV dose. Animals were dosed via the lateral tail vein. Blood samples were collected at designated time points (0.083, 0.25, 0.5, 1, 2, 4, 8, 16, 24 hours) by cardiac puncture under isoflurane anesthesia (up to 1 ml blood per animal). The blood was collected into tubes containing Li-Heparin. The blood samples were kept on ice until centrifugation within approximately 30 minutes of collection. The plasma was transferred into labeled polypropylene tubes and frozen at −70° C. until analyzed by LC/MS/MS.
The compounds of the invention were reconstituted in 40% Propylene Glycol/40% Propylene Carbonate/20% of a 5% Sucrose clear solution resulting in a concentration of 2 mg/ml and administered to mice (10 mg/kg) as a single oral dose via gavage. Blood samples were collected at 0.25, 0.5, 1, 2, 4, 8, 12, 16, 20 and 24 hours post dose by cardiac puncture under isoflurane anesthesia. The blood was collected in tubes containing Li-Heparin. The blood samples were kept on ice until centrifugation within approximately 30 minutes of collection. The plasma was transferred into labeled polypropylene tubes and frozen at −70° C. until analyzed by LC/MS/MS.
Plasma samples at each time point were analyzed using a LC-MS/MS with a lower limit of quantification (LLOQ) of 1 ng/ml. Plasma was analyzed to determine the amount of the compound of the invention in each sample and regression curves generated for each compounds of the invention in the relevant matrixes.
WinNonlin analysis was used for calculating PK parameters for both the IV and PO administrations: • PK parameters for IV portion—AUClast; AUCINF; T1/2; Cl; Vss; Cmax; MRT • PK parameters for PO portion—AUClast; AUCINF; T1/2; Cmax; Cl, MRT.
In addition to the above PK parameters, bioavailability (% F) was calculated.

acute DSS-induced IBD = experiment: Acute prophylactic model of DSS-induced IBD in mice; assay type: in vivo, male C57Bl/6 mice; details: for effect on colon injury: mouse model of acute DSS-induced IBD; for decrease of percent of mice with severe colon injury scores via endoscopy, of vehicle control / decrease of percent of mice with severe colon injury scores via histopathology, of vehicle control: prophylactic regimen
Description: Acute and chronic models of dextran sodium sulfate (DSS)-induced IBD in mice were used to explore efficacy of GSNORi against this disease. Acute and chronic DSS-induced IBD are widely used and well characterized models that induce pathological changes in the colon similar to those observed in the human disease. In these models and in human disease, epithelial cells within the crypts of the colon are disrupted, leading to dysfunction of the epithelial barrier and the ensuing tissue inflammation, edema, and ulceration. GSNORi therapy may benefit IBD by restoring s-nitrosoglutathione (GSNO) levels, and thus prevent or reverse the epithelial barrier dysfunction. Experimental IBD was induced by administration of DSS in the drinking water of male C57Bl/6 mice (N=8 to 10 mice per group) for 6 consecutive days. GSNORi was dosed orally at doses of 0.1 to 10 mg/kg/day for 10 days starting two days prior to and continuing two days post DSS exposure. Two days post DSS exposure, the effect of GSNORi was assessed in a blinded fashion via endoscopy and histopathology using a five point scale ranging from a score=0 (normal tissue) through a score=4 (ulcerative tissue damage and marked pathological changes). Levels of circulating cytokines involved in inflammatory pathways were also assessed. The effect of GSNORi was compared to vehicle treated controls. The corticosteroid, prednisolone, was used as the positive control in this study and was administered daily at 3 mg/kg/day via oral dosing. Naïve mice (N=5) were also assessed as a normal tissue control.

[2] = system: cigarette smoke-induced COPD; experiment: Acute (4 day) cigarette smoke exposure COPD model; assay type: in vivo, female C57Bl/6 mice; details: oral 10 mg/kg/day for 7 days, acute 4 day smoke model
Description: The efficacy of GSNOR inhibitors was assessed in a mouse model of chronic obstructive pulmonary disease (COPD) induced by short duration (4 days or 11 days) of exposure to cigarette smoke. Infiltration of inflammatory cells into the bronchoalveolar lavage fluid (BALF) and BALF levels of chemokines involved in inflammation and tissue turnover/repair were measured to assess the influences of GSNOR inhibitors on some of the early events associated with the initiation and progression of COPD.
Efficacy of GSNOR inhibitors against COPD was explored using acute (4 day) and subchronic (11 day) models of cigarette smoke-induced COPD in mice. […] In animal models, changes in lung pathology are only evident after extended (several months) duration of exposure to cigarette smoke, thus making chronic models prohibitive as effective screening tools. More recently, models exploring inflammatory responses after short duration (2 weeks or less) of smoke exposure in mice have been utilized as tools for screening efficacy and mechanisms of action of novel therapeutics against COPD. The key roles of inflammation in the initiation and progression of COPD, make these short duration models relevant for initial tests of efficacy of novel therapeutics.
Female C57Bl/6 mice (N=8 per group) were exposed to cigarette smoke using a whole body exposure chamber. Mice were exposed daily for 4 consecutive days to 4 cycles of smoke from 6 sequential cigarettes (Kentucky 3R4F without filter) with a 30 minute smoke free interval between cycles. GSNOR inhibitors were administered daily via oral dosing at 10 mg/kg/day for 7 days starting 2 days prior to smoke exposure and continuing 1 day post-exposure. The effects of GSNOR inhibitors were assessed by quantitating the numbers of total cells, leukocytes, and leukocytes differentials in the BALF via light microscopy and the levels of BALF chemokines via ELISA at approximately 24 h after the last smoke exposure. The effect of GSNOR inhibitors were compared to vehicle treated controls. The PDE4 inhibitor, roflumilast, was used as the positive control for the study. A group of naïve mice (N=8) was exposed to air and used as a negative control for the study.

[3] = system: cigarette smoke-induced COPD; experiment: Subchronic (11 day) cigarette smoke exposure COPD model; assay type: in vivo, female C57Bl/6 mice; details: oral 1 mg/kg/day for 11 days, subchronic 11 day model
Description: The efficacy of GSNOR inhibitors was assessed in a mouse model of chronic obstructive pulmonary disease (COPD) induced by short duration (4 days or 11 days) of exposure to cigarette smoke. Infiltration of inflammatory cells into the bronchoalveolar lavage fluid (BALF) and BALF levels of chemokines involved in inflammation and tissue turnover/repair were measured to assess the influences of GSNOR inhibitors on some of the early events associated with the initiation and progression of COPD. Efficacy of GSNOR inhibitors against COPD was explored using acute (4 day) and subchronic (11 day) models of cigarette smoke-induced COPD in mice. […] In animal models, changes in lung pathology are only evident after extended (several months) duration of exposure to cigarette smoke, thus making chronic models prohibitive as effective screening tools. […] The effects of GSNOR inhibitors were assessed by quantitating the number of total cells, and leukocytes differentials in the BALF via light microscopy at 24 h after the last exposure. The effect of GSNOR inhibitors were compared to vehicle treated controls and expressed as percent inhibition of the cigarette smoke induced increases in BALF cell numbers. […]

[4] = oral 10 mg/kg/day for 10 consecutive days

Row | Structure (SMILES) | bioavailability [1] | effect on colon injury (acute DSS-induced IBD) | decrease of percent of mice with severe colon injury scores via endoscopy, of vehicle control (acute DSS-induced IBD; [4]) | decrease of percent of mice with severe colon injury scores via histopathology, of vehicle control (acute DSS-induced IBD; [4]) | further results
1 | O=C(O)c1ccc(-c2c(C(F)(F)F)oc3cc(O)ccc3c2=O)cc1 [comparator compound, 4-(7-hydroxy-4-oxo-2-(trifluoromethyl)-4H-chromen-3-yl)benzoic acid, reference compound] | ~17% |  |  |  | clearance (Cl) relative to Example 16 [1]: about three times faster than Example 16
2 | O=c1[nH]c(-c2ccc(-c3c(C(F)(F)F)oc4cc(O)ccc4c3=O)cc2)no1 [Example 9, 3-(4-(7-hydroxy-4-oxo-2-(trifluoromethyl)-4H-chromen-3-yl)phenyl)-1,2,4-oxadiazol-5(4H)-one] | 4 to 41% |  |  |  | 
3 | Cc1sc2cc(O)ccc2c(=O)c1-c1ccc(-c2nnn[nH]2)cc1 [Example 12, 3-(4-(1H-tetrazol-5-yl)phenyl)-7-hydroxy-2-methyl-4H-thiochromen-4-one] | 4 to 41% |  |  |  | 
4 | O=c1c2ccc(O)cc2oc(C(F)(F)F)c1[C@H]1CC[C@H](C(=O)O)CC1 [Example 3, (trans)-4-(7-hydroxy-4-oxo-2-(trifluoromethyl)-4H-chromen-3-yl)cyclohexanecarboxylic acid] | 4 to 41% | attenuated colon injury |  |  | decrease of percent of mice with severe colon injury scores via endoscopy, of vehicle control (acute DSS-induced IBD; oral 0.1 mg/kg/day for 10 consecutive days): 38%; decrease of percent of mice with severe colon injury scores via endoscopy, of vehicle control (acute DSS-induced IBD; oral 1 mg/kg/day for 10 consecutive days): 25%; effect on BALF chemokines [2]: restored BALF chemokines towards levels observed in naïve mice; effects on BALF cells compared with roflumilast [2]: comparable to or greater than those observed for roflumilast; inhibition of smoke-induced increase in eosinophils in BALF [2]: 100%; inhibition of smoke-induced increase in leukocytes in BALF [2]: 100%; inhibition of smoke-induced increase in macrophages in BALF [2]: 100%; inhibition of smoke-induced increase in neutrophils in BALF [2]: 100%; inhibition of smoke-induced increase in total cells in BALF [2]: 100%
5 | O=c1c(-c2ccc(-c3nnn[nH]3)cc2)c(C(F)(F)F)oc2cc(O)ccc12 [Example 1, 3-(4-(1H-tetrazol-5-yl)phenyl)-7-hydroxy-2-(trifluoromethyl)-4H-chromen-4-one] | 4 to 41% | attenuated colon injury | 75% | 17% | 
6 | O=C(O)c1ccc(-c2c(C(F)(F)F)oc3cc(O)ccc3c2=O)c(F)c1 [Example 16, 3-fluoro-4-(7-hydroxy-4-oxo-2-(trifluoromethyl)-4H-chromen-3-yl)benzoic acid] | ~44% | attenuated colon injury | 58% | 15% | effects on BAL cells compared with roflumilast [3]: comparable to those of roflumilast
